Measured values from ChEMBL document CHEMBL1201862, “PubChem BioAssay data set” (2004).
Activity calls are given as the source filed them.

How the values were obtained:
[1] = target: Glucose-6-phosphate 1-dehydrogenase (Homo sapiens, UniProt P11413); assay: human G6PD enzyme inhibitors, dose response, selectivity assay for P. falciparum G6PD inhibitor project, biochemical, fluorescence (AID 504792); format: functional
[2] = target: T1, DNA dC->dU-editing enzyme APOBEC-3A (Homo sapiens, UniProt P31941); assay: APOBEC3A DNA deaminase inhibitors, dose response, biochemical (AID 504722); format: functional
T1 sequence (P31941 whole entry): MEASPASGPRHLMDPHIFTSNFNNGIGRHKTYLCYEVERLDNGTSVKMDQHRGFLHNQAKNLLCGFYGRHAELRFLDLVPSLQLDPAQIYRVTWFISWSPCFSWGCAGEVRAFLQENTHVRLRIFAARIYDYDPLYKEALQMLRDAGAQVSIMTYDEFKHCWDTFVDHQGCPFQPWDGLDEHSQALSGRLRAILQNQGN

[3] = target: T2, Heat shock factor protein 1 (Mus musculus, UniProt P38532); assay: HSF1 potentiators in luciferase reporter cells, confirmation, cell-based, NIH3T3, luminescence, dose retest (AID 435004); format: functional;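 also: stress induced by proteasome inhibitor MG132 added 30 min after compound; luciferase reporter driven by HSF1 response element in NIH3T3 cells; actives raise luminescence as potentiators of the MG132 stress response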
T2 sequence (P38532 whole entry): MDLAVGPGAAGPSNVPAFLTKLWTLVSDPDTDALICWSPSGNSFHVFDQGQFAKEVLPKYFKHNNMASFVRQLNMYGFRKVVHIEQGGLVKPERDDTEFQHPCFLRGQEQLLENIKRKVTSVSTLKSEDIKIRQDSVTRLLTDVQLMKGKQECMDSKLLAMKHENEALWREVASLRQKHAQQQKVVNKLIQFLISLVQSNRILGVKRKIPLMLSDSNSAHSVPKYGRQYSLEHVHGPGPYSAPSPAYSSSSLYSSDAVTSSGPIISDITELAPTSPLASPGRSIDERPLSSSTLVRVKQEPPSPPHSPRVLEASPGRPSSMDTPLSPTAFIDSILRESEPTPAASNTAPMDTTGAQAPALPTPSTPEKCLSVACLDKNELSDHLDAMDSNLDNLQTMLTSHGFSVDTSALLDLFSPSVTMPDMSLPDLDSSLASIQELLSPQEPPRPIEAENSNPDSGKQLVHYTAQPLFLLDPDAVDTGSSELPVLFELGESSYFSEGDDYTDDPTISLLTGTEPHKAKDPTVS

[4] = target: Induced myeloid leukemia cell differentiation protein Mcl-1 (Homo sapiens, UniProt Q07820); format: functional
[5] = target: T3, DNA dC->dU-editing enzyme APOBEC-3G (Homo sapiens, UniProt Q9HC16); assay: Dose Response confirmation of small molecule APOBEC3G DNA Deaminase Inhibitors via a fluorescence-based single-stranded DNA deaminase assay. [Related pubchem assays (depositor defined):AID493012, AID493028]; format: functional
T3 sequence (Q9HC16 whole entry): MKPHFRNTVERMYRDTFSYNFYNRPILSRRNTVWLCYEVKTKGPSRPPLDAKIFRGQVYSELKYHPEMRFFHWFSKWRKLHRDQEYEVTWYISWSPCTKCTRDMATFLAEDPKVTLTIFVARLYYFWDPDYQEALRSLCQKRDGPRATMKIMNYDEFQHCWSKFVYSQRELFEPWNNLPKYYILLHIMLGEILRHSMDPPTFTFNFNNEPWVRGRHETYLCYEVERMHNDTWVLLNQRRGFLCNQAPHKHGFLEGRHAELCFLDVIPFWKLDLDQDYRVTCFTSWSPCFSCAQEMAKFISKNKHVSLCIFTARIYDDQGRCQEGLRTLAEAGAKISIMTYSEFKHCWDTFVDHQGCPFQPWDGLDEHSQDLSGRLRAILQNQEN

[6] = target: T4, Voltage-gated N-type calcium channel alpha-1B subunit/Amyloid beta A4 precursor protein-binding family A member 1 (Homo sapiens, UniProt Q00975+Q02410); format: protein assay
T4 sequence (Q00975 whole entry): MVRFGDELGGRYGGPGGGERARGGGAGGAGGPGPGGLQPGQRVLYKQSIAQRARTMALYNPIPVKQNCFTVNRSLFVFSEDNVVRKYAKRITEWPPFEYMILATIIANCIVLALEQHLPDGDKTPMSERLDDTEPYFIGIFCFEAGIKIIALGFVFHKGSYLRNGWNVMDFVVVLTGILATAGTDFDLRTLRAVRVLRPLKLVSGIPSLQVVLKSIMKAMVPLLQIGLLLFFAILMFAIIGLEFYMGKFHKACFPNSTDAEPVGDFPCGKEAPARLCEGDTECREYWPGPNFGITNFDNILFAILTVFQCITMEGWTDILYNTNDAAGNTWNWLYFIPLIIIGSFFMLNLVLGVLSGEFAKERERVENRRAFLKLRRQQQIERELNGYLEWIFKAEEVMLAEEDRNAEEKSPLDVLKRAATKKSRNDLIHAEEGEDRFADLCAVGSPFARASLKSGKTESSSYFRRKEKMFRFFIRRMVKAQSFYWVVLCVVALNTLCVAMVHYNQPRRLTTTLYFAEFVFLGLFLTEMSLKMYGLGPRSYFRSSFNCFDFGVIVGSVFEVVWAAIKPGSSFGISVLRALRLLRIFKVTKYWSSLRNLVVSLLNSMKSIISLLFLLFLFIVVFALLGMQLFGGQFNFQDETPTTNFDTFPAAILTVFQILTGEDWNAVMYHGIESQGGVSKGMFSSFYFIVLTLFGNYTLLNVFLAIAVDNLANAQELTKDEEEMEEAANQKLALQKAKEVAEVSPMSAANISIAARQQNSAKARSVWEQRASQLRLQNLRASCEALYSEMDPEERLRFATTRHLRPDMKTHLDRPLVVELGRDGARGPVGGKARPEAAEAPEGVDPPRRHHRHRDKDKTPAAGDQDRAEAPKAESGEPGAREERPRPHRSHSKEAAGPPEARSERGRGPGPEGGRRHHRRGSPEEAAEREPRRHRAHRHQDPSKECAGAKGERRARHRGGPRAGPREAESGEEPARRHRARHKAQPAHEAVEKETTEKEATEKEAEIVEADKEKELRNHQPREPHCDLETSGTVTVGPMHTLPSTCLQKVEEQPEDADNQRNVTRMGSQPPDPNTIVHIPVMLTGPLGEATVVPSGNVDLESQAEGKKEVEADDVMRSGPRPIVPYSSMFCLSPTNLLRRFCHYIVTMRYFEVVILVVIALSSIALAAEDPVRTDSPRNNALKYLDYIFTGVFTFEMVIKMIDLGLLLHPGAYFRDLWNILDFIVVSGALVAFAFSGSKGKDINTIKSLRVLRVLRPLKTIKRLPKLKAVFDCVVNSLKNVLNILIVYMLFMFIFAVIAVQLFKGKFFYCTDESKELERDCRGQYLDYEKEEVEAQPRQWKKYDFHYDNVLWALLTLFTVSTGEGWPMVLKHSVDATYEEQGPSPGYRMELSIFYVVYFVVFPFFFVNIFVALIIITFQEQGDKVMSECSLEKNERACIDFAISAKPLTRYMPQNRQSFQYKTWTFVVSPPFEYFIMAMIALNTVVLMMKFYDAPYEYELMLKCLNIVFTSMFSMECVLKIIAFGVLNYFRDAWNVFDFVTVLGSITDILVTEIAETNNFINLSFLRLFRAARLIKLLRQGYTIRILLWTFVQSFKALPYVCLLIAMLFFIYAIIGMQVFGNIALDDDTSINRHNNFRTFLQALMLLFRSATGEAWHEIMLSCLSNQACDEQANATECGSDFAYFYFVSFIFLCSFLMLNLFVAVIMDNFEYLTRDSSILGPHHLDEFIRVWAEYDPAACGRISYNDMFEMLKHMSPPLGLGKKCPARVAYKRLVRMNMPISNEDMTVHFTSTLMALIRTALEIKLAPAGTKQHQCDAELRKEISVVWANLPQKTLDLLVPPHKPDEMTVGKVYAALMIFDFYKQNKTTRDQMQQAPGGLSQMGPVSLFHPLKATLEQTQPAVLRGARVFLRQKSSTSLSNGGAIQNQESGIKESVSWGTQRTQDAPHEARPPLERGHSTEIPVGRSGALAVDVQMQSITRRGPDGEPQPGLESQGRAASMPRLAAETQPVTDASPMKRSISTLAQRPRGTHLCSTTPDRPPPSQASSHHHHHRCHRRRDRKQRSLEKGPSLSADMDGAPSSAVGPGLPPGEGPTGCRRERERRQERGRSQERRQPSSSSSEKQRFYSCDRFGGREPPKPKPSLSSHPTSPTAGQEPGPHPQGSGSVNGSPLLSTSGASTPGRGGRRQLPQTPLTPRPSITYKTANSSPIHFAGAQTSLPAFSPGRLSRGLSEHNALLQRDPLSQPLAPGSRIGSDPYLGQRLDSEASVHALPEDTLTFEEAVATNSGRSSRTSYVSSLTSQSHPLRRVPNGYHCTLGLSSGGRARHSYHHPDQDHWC
T4 sequence (Q02410 whole entry): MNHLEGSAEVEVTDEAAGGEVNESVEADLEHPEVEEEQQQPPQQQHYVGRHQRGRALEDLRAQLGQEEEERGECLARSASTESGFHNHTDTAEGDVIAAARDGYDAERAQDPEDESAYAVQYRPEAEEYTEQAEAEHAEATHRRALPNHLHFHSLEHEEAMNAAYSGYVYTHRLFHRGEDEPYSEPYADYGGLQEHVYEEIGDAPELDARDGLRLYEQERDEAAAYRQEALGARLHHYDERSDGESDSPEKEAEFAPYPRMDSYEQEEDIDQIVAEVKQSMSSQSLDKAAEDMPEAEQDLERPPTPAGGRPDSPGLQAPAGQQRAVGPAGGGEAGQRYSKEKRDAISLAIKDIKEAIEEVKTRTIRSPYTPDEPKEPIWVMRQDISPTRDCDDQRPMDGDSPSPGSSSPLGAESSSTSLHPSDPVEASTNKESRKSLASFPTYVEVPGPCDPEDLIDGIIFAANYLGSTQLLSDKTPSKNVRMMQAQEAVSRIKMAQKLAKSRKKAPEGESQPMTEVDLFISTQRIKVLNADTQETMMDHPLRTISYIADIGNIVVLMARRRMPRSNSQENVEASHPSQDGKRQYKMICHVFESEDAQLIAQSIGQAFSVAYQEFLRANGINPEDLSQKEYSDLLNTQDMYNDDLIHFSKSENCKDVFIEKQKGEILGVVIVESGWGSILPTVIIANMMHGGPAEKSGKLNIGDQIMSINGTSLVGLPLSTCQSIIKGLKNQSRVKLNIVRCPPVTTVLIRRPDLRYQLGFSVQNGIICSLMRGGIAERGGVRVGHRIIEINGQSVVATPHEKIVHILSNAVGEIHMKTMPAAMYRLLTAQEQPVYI

[7] = target: Large T antigen (Simian virus 40, UniProt P03070); format: functional, Betapolyomavirus macacae;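 also: Confirmatory-stage PubChem screen for compounds that inhibit SV40 T antigen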
[8] = target: T4, Voltage-gated N-type calcium channel alpha-1B subunit/Amyloid beta A4 precursor protein-binding family A member 1; format: protein assay; remark: listed apart in the source
[9] = THP-1 cell cytotoxicity, dose response, cytotoxicity control for non-replicating M. tuberculosis project (AID 489025); format: functional
[10] = target: T5, Streptokinase A (Streptococcus pyogenes serotype M1, UniProt P10520); assay: S. pyogenes streptokinase expression inhibitors, potency, dose response, plasminogen activation absorbance, OD405 (AID 1914); format: functional, Streptococcus pyogenes M1 GAS;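 also: secreted streptokinase activity via plasminogen activation per viability signal from cell pellet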
T5 sequence (P10520 whole entry): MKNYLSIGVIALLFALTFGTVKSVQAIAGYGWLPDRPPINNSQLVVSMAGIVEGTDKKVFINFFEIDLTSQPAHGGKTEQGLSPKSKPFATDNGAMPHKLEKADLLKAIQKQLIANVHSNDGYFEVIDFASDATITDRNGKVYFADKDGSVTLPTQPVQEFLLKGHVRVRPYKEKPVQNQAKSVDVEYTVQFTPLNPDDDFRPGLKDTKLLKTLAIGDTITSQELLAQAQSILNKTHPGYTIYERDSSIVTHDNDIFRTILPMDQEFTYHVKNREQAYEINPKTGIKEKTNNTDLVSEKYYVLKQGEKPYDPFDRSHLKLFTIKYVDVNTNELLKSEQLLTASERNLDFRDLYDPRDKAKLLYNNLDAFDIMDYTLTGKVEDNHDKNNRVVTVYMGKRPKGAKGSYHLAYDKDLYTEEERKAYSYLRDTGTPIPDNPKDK

[11] = target: T6, Intestinal-type alkaline phosphatase (Homo sapiens, UniProt P09923); assay: human intestinal alkaline phosphatase activators, dose response, biochemical, luminescence, uHTS hits (AID 463120); format: functional
T6 sequence (P09923 whole entry): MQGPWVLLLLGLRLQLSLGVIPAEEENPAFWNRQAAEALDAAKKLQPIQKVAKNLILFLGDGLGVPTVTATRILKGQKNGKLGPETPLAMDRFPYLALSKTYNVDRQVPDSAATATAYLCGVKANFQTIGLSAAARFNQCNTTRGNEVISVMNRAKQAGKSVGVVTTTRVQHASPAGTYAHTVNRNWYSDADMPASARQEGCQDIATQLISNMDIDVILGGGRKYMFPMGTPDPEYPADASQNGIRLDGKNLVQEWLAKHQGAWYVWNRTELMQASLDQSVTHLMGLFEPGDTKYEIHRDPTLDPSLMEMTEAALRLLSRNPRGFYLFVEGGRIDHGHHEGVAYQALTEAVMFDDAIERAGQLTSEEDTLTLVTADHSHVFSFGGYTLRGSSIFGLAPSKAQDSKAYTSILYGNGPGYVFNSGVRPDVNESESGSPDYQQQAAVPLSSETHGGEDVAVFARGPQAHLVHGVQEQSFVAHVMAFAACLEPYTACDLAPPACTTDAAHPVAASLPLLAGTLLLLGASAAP

[12] = test system: Streptococcus sp. 'group A'; assay: growth inhibition of control SK(-) GAS strain, dose response, counter-screen for streptokinase expression inhibitor project, luminescence, kanamycin, BacTiterGlo, confirmation (AID 1900); format: functional, organism-based
[13] = target: T6, Intestinal-type alkaline phosphatase; assay: human IAP activators, dose response, biochemical, luminescent, uHTS hits, set 2 (AID 488817); format: functional;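 also: potency of activators that raise enzyme activity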
[14] = target: T7, Alkaline phosphatase, tissue-nonspecific isozyme (Homo sapiens, UniProt P05186); assay: TNAP enzyme activators, dose response, selectivity assay for human IAP activator project, biochemical, TNAP isozyme, human IAP uHTS hits (AID 488886); format: functional;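 also: potency of compounds raising TNAP activity as a selectivity check on IAP activators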
T7 sequence (P05186 whole entry): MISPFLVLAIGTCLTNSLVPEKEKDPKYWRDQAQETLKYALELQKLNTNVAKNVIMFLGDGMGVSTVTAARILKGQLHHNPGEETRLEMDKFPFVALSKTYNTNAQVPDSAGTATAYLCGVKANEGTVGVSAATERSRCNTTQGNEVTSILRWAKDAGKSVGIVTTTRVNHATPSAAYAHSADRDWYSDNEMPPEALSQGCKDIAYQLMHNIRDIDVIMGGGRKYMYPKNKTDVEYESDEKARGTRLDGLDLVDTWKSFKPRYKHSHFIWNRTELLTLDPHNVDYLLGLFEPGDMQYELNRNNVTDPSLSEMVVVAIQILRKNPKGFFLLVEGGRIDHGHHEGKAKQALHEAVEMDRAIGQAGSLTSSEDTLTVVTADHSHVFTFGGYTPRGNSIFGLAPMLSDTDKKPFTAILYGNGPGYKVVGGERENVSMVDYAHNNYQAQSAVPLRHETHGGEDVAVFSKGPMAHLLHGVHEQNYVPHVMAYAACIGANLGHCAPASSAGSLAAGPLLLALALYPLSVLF

[15] = target: Intestinal-type alkaline phosphatase (Mus musculus, UniProt P24822); assay: PubChem AID 488874; format: functional
[16] = test system: Streptococcus; assay: Group A Streptococcus viability loss, dose response, counter-screen for streptokinase expression inhibitor project, luminescence, BacTiterGlo (AID 1915); format: functional, organism-based;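 also: potency for reduction of bacterial viability or growth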
[17] = test system: HEK293; assay: NOD2 signaling inhibitors in MDP-stimulated cells, cell-based, uHTS, luminescence (AID 2001); format: functional; settings: Homo sapiens
[18] = test system: HEK293; assay: cells; settings: Homo sapiens
[19] = test system: HEK293; assay: cells; format: functional, cell-based; settings: Homo sapiens
[20] = test system: HEK293; assay: cells; format: functional, cell-based; settings: Homo sapiens; remark: listed apart in the source
[21] = test system: HEK293; assay: cells; settings: Homo sapiens; remark: listed apart in the source
[22] = test system: HEK293; assay: NOD1 signaling inhibitors, primary screen, cell-based, luminescence, uHTS (AID 1578); format: functional; settings: Homo sapiens
[23] = target: Polyadenylate-binding protein 1 (Homo sapiens, UniProt P11940); assay: PABP poly(A) RNA binding inhibitors, primary screen, biochemical, fluorescence polarization, uHTS (AID 2014)
[24] = target: Eukaryotic translation initiation factor 4H (Homo sapiens, UniProt Q15056); assay: human eIF4H binding inhibitors, primary screen, translation initiation inhibitor project, biochemical, uHTS, fluorescence polarization (AID 2012)
[25] = target: T1, DNA dC->dU-editing enzyme APOBEC-3A; assay: Dose Response confirmation of small molecule APOBEC3A DNA Deaminase Inhibitors via a fluorescence-based single-stranded DNA deaminase assay. [Related pubchem assays (depositor defined):AID493011, AID493024]; format: functional
[26] = target: T3, DNA dC->dU-editing enzyme APOBEC-3G; format: functional
[27] = growth suppression of beta-catenin-knockout colon cells, dose response, cell-based, HCT116, human colon tumor (AID 1045); format: functional;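 also: HCT116 colon tumor cells with beta catenin knocked out; cells exposed to compound for 60 hours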
[28] = test system: INS1; assay: beta cell apoptosis inhibitors, cytokine rescue, dose response, luminescence, retest (AID 449756); format: functional, cell-based; settings: Rattus norvegicus;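 also: cell death triggered by IL-1 beta plus TNF-alpha plus IFN-gamma mixture; protective hits raise ATP signal compared with cytokine alone wells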
[29] = ZM109 Env clade C HIV-1 fusion inhibitors, dose response, HeLa effector, CEM target cells, luciferase, cherry-pick (AID 652058); format: functional, cell-based
[30] = inhibitors of clade B AD8 Env fusion, dose response, cell-based, cherry-pick (AID 652062); format: functional;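 also: luciferase signal from cell-cell fusion driven by HIV-1 clade B AD8 Env; potency is for inhibitors of fusion seen as a drop in luminescence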
[31] = cytotoxicity in MIN6 insulinoma cells, dose response, cytotoxicity control, cell-based, mouse insulinoma (AID 2122); format: functional;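 also: confirmatory high-throughput counterscreen run to flag cytotoxic compounds; mouse MIN-6 beta cells carrying an insulin promoter eGFP reporter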
[32] = insulin promoter down-regulators in MIN6 cells, imaging, high-content screening, mouse beta cells (AID 1628); format: functional
[33] = microbe, parasite or virus in culture; format: functional; settings: Mycobacterium tuberculosis
[34] = growth suppression of PTEN-null colon cells, dose response, cell-based, HCT116 PTEN knockout (AID 1047); format: functional;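 also: HCT116 colon tumor cells with PTEN knocked out; cells exposed to compound for 60 hours before readout; potency for loss of cell viability measured by luminescence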
[35] = target: Cytochrome P450 3A4 (Homo sapiens, UniProt P08684);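 also: CYP3A4 tested as one member of a cytochrome P450 panel screen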
[36] = inhibitors of HIV Env-driven cell fusion, dose response, cherry-pick (AID 652057); format: functional, cell-based
[37] = off-target signal loss in HeLa-CEM21 co-culture – HeLa F-luc CTL cells, cherry-picked, counter-screen for HIV-1 Env fusion inhibitor project, dose response (AID 652040); format: functional, cell-based;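 also: potency for signal decrease marking cytotoxic or nonspecific inhibition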
[38] = target: T8, Rac GTPase-activating protein 1 (Homo sapiens, UniProt Q9H0H5); assay: MgcRacGAP GTPase-activating activity inhibitors, confirmation, biochemical, ADP Hunter fluorescence, primary and confirmatory (AID 624330); format: functional
T8 sequence (Q9H0H5 whole entry): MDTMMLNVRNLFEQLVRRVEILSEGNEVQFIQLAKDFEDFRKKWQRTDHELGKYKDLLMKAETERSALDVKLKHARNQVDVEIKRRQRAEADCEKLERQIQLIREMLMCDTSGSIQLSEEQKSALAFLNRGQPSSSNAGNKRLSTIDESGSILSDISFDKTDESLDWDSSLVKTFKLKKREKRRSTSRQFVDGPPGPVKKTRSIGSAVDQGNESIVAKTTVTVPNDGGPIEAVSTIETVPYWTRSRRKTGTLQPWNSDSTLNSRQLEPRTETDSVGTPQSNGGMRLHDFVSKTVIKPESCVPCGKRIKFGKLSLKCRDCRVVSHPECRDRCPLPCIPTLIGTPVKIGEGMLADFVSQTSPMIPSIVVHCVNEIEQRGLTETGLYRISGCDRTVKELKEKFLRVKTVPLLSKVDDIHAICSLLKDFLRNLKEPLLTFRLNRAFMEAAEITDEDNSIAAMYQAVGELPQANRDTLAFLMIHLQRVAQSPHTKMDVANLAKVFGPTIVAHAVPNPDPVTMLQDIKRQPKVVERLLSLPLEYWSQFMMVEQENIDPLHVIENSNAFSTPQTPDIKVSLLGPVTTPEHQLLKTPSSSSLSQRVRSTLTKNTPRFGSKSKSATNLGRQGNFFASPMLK

Glucose-6-phosphate 1-dehydrogenase, sequence (P11413 whole entry): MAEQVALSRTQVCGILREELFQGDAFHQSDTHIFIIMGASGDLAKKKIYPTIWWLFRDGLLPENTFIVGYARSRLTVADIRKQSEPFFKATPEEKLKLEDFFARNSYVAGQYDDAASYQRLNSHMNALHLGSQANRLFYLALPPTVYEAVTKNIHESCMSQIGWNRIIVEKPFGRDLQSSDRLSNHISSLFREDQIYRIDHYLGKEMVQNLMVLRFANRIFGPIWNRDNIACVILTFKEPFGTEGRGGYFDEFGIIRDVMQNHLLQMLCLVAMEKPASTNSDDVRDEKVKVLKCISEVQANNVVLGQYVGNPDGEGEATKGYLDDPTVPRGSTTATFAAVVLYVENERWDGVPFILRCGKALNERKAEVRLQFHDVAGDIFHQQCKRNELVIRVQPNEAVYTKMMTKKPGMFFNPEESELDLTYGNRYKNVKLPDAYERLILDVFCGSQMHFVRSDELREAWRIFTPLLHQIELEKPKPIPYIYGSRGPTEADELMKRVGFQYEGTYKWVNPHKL

## COc1cc(SSc2cc(OC)cc([N+](=O)[O-])c2N)c(N)c([N+](=O)[O-])c1
[1]
  IC50: 20.9 µM (inactive)
[2]
  IC50: > 100 µM (inactive)
[3]
  EC50: > 260 µM (inactive)
[4]
  IC50: > 54 µM (active)
[5]
  IC50: 2.54 µM (active)

## CCOc1ccc(NC(=O)Cn2sc3nc(C)cc(C)c3c2=O)cc1
[6]
  IC50: > 50 µM (inactive)
[7]
  IC50: > 100 µM (active)
[8]
  IC50: 13.1 µM (active)
[1]
  IC50: 24.1 µM (inactive)
[9]
  CC50: 36.1 µM (active)
[2]
  IC50: > 100 µM (inactive)
[5]
  IC50: 2.96 µM (active)

## O=C(CCN1C(=O)/C(=C/c2ccccc2Cl)SC1=S)NNC(=O)c1ccccc1O
[10]
  EC50: 8.36 µM (active)
[11]
  EC50: 7.7 µM (active)
[12]
  EC50: 3.63 µM (active)
[13]
  EC50: 17.7 µM (active)
[14]
  EC50: 23.2 µM (active)
[15]
  IC50: 66.5 µM (active)
[16]
  EC50: 14.6 µM (active)

## CN(C)S(=O)(=O)c1cc(NC(=O)CSc2nn(-c3ccc(Cl)cc3)c(=S)s2)ccc1Cl
[17]
  IC50: 4.69 µM (active)
[18]
  EC50: > 59.7 µM (inactive)
[19]
  IC50: 11.2 µM (active)
[20]
  IC50: 5.23 µM (active)
[21]
  EC50: > 59.7 µM (inactive)
[22]
  EC50: 13.4 µM (active)

## CCOC(=O)COc1ccc(Br)cc1/C=C1\SC(N)=NC1=O
[23]
  IC50: 7.13 µM (active)
[24]
  IC50: > 100 µM (inactive)
[25]
  IC50: 8.37 µM (active)
[26]
  IC50: 8.41 µM (active)

## c1ccc2c(c1)ncn2CCCCOc1ccc2c(c1)CCC2
[27]
  EC50: 22.8 µM (active)
[28]
  AC50: 5.04 µM (active)
[29]
  AC50: 28.6 µM (active)
[30]
  AC50: 9.21 µM (active)
[31]
  IC50: 2.1 µM (active)
[32]
  IC50: 2.69 µM (active)
[33]
  CC50: > 40 µM (active)
[34]
  EC50: 24.1 µM (active)

## CN(C)c1ncc2nc(-c3ccc(Cl)cc3)c(=O)n(Cc3ccc(F)cc3)c2n1
[35]
  AC50: inconclusive

## Cc1ccc(C)c(NC(=O)c2cc[n+](C)cc2)c1
[25]
  IC50: 2.08 µM (active)
[26]
  IC50: 4.76 µM (active)

## COc1ccc(C(C)=O)cc1CC1(C)C(=O)Nc2ccc(-c3ccccc3OC)cc21 (centres undefined)
[18]
  EC50: > 59.6 µM (inactive)
[29]
  AC50: 0.627 µM (active)
[30]
  AC50: 2.02 µM (active)
[21]
  EC50: > 59.6 µM (inactive)
[36]
  AC50: 0.29 µM (active)
[37]
  AC50: 0.397 µM (active)

## COc1cc(/C=N/n2c(S)nnc2-c2cc(C)[nH]n2)cc(OC)c1OC
[2]
  IC50: > 100 µM (inactive)
[5]
  IC50: 2.5 µM (active)
[38]
  IC50: 82.2 µM (active)
